Measurements taken from US11608323B2 (SYNGENTA LIMITED, priority 2013, dated 2023).

Columns and labels:
Type in all cases: in vivo
[1] = system: ABUTH; assay: Pre-emergence herbicidal activity, glasshouse pot test; conditions: rate 1000 g/Ha, evaluated after 13 days, scale 0-5
Summary of the method: (§1)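 Damage was rated 13 days after treatment on a 0–5 scale (0 = no damage, 5 = total damage). Pots of seeds in standard soil were sprayed one day after sowing with an aqueous solution from an acetone/water (50:50), 0.5% Tween 20 formulation and kept at 24/16 °C day/night.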

[2] = system: ALOMY; assay: as above; conditions: rate 1000 g/Ha, evaluated after 13 days, scale 0-5
Summary of the method: as §1

[3] = system: ZEAMX; assay: as above; conditions: rate 1000 g/Ha, evaluated after 13 days, scale 0-5
Summary of the method: as §1

[4] = system: AMARE; assay: as above; conditions: rate 1000 g/Ha, evaluated after 13 days, scale 0-5
Summary of the method: as §1

[5] = system: ECHCG; assay: as above; conditions: rate 1000 g/Ha, evaluated after 13 days, scale 0-5
Summary of the method: as §1

[6] = system: SETFA; assay: as above; conditions: rate 1000 g/Ha, evaluated after 13 days, scale 0-5
Summary of the method: as §1

[7] = system: ABUTH; assay: Post-emergence herbicidal activity, glasshouse pot test; conditions: Abutilon theophrasti; application post-emergence; rate 1000 g/Ha; evaluated after 13 days
Summary of the method: (§2)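 Damage was rated 0-5 (5 = total) 13 days after a post-emergence spray of acetone/water (50:50) plus 0.5% Tween 20 formulation. Plants were sprayed at 8 days' growth and kept at 24/16° C, 14 h light, 65% humidity, watered twice daily.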

[8] = system: ALOMY; assay: as above; conditions: Alopecurus myosuroides; application post-emergence; rate 1000 g/Ha; evaluated after 13 days
Summary of the method: as §2

[9] = system: ZEAMX; assay: as above; conditions: Zea mays; application post-emergence; rate 1000 g/Ha; evaluated after 13 days
Summary of the method: as §2

[10] = system: AMARE; assay: as above; conditions: Amaranthus retroflexus; application post-emergence; rate 1000 g/Ha; evaluated after 13 days
Summary of the method: as §2

[11] = system: ECHCG; assay: as above; conditions: Echinochloa crus-galli; application post-emergence; rate 1000 g/Ha; evaluated after 13 days
Summary of the method: as §2

[12] = system: SETFA; assay: as above; conditions: Setaria faberi; application post-emergence; rate 1000 g/Ha; evaluated after 13 days
Summary of the method: as §2

Row | Structure (SMILES) | ABUTH damage score, application pre-emergence [1] | ALOMY damage score, application pre-emergence [2] | ZEAMX damage score, application pre-emergence [3] | AMARE damage score, application pre-emergence [4] | ECHCG damage score, application pre-emergence [5] | SETFA damage score, application pre-emergence [6] | Post-emergence herbicidal activity ABUTH (damage score 0-5) [7] | Post-emergence herbicidal activity ALOMY (damage score 0-5) [8] | Post-emergence herbicidal activity ZEAMX (damage score 0-5) [9] | Post-emergence herbicidal activity AMARE (damage score 0-5) [10] | Post-emergence herbicidal activity ECHCG (damage score 0-5) [11] | Post-emergence herbicidal activity SETFA (damage score 0-5) [12]
1 | COCC1C(O)N(c2cc(C(F)(F)F)ccn2)C(=O)N1C (racemic) [Compound A54] | 5 | 3 | 0 | 5 | 2 | 2 | 5 | 5 | 4 | 5 | 5 | 5
2 | CN1C(=O)N(c2cc(C(F)(F)F)ccn2)C(O)C1OCC(F)(F)F (stereo not drawn) [Compound A39] | 5 | 4 | 1 | 5 | 3 | 2 | 5 | 5 | 1 | 5 | 5 | 5
3 | CON1C(=O)N(c2cc(C(F)(F)F)ccn2)C(O)[C@H]1C (mixture of isomers) [Compound A4, (4R,5R)-4-hydroxy-1-methoxy-5-methyl-3-[4-(trifluoromethyl)-2-pyridyl]imidazolidin-2-one and (4S,5R)-4-hydroxy-1-methoxy-5-methyl-3-[4-(trifluoromethyl)-2-pyridyl]imidazolidin-2-one] | 5 | 4 | 3 | 5 | 5 | 5 | 5 | 5 | 5 | 5 | 5 | 5
4 | CCCOC1C(O)N(c2cc(C(F)(F)F)ccn2)C(=O)N1C (stereo not drawn) [Compound A2] | 5 | 2 | 1 | 5 | 4 | 3 | 5 | 4 | 2 | 5 | 5 | 5
5 | COC(OC)C1C(O)N(c2cc(C(F)(F)F)ccn2)C(=O)N1C (stereo not drawn) [Compound A42] | 1 | 0 | 0 | 4 | 0 | 3 | 4 | 2 | 1 | 4 | 0 | 2
6 | COc1cnc(N2C(=O)N(C)C(C)C2O)cc1C(F)(F)F (stereo not drawn) [Compound A12, 5-hydroxy-1-[5-methoxy-4-(trifluoromethyl)-2-pyridyl]-3,4-dimethyl-imidazolidin-2-one] | 5 | 4 | 3 | 5 | 5 | 5 | 5 | 5 | 5 | 5 | 5 | 5
7 | CON1C(=O)N(c2cc(C(F)(F)F)ccn2)C(O)C1C (stereo not drawn) [Compound A8, 4-hydroxy-1-methoxy-5-methyl-3-[4-(trifluoromethyl)-2-pyridyl]imidazolidin-2-one] | 5 | 4 | 3 | 5 | 4 | 5 | 5 | 5 | 4 | 5 | 5 | 5
8 | CCOC1C(OC(C)=O)N(c2cc(C(F)(F)F)ccn2)C(=O)N1C (stereo not drawn) [Compound A96] | 5 | 4 | 1 | 5 | 4 | 4 | 5 | 5 | 3 | 5 | 5 | 5
9 | CCOC1C(O)N(c2cc(C(C)(C)F)ccn2)C(=O)N1C (stereo not drawn) [Compound A61] | 5 | 4 | 1 | 5 | 4 | 1 | 5 | 5 | 3 | 5 | 5 | 5
10 | CCC1C(O)N(c2cc(C(F)(F)F)ccn2)C(=O)N1C (stereo not drawn) [Compound A1] | 5 | 4 | 3 | 5 | 5 | 5 | 5 | 5 | 3 | 5 | 5 | 5
11 | CC1C(O)N(c2ccc(Cl)cn2)C(=O)N1C (single isomer, unassigned) [Compound A26] | 4 | 2 | 2 | 3 | 4 | 4 | 4 | 1 | 1 | 3 | 1 | 1
12 | CC(=O)Nc1cnc(N2C(=O)N(C)C(C)C2O)cc1C(F)(F)F (single isomer, unassigned) [Compound A56] | 5 | 2 | 0 | 5 | 1 | 1 | 5 | 4 | 1 | 5 | 3 | 2
13 | COC1C(O)N(c2cc(C(F)(F)F)ccn2)C(=O)N1C (stereo not drawn) [Compound A5] | 5 | 3 | 2 | 5 | 4 | 4 | 5 | 4 | 2 | 5 | 4 | 4
